Experimental data from article PMC7726444 (Frontiers in Pharmacology, 2020).

Tests used:
MAO-A = biological target: T1, MAO-A (Homo sapiens, UniProt P21397); experiment: MAO-A enzymatic activity assay (MAO-A Inhibitor Screening Kit, fluorimetric detection of H2O2); type: biochemical; conditions: 25°C, 15 min kinetic read; mean (95% confidence interval), three experiments
T1 construct: purchased BioVision, Inc, Milpitas, CA
T1 sequence (P21397 1-527): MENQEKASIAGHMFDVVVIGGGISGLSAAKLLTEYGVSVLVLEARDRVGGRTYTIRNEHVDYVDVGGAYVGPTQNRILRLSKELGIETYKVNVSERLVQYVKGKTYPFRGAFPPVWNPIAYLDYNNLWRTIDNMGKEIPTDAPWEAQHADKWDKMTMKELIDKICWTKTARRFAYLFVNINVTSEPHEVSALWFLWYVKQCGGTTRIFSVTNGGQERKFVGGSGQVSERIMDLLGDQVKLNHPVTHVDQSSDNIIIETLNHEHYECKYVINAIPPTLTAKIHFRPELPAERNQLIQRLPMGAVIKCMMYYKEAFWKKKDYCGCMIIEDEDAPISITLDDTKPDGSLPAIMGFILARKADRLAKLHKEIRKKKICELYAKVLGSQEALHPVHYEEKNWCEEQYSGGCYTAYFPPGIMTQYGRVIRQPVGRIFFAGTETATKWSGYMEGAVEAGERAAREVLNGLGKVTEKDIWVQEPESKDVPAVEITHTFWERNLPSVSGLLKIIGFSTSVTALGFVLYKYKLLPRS
Procedure: The experiments were conducted following the manufacturer’s (BioVision, Inc, Milpitas, CA) instructions and were based on the fluorimetric detection of H2O2, a byproduct of the enzymatic activity of MAO-A, by measuring the fluorescence (Excitation/Emission at 535/587 nm) kinetically at 25°C for 15 min using a Tecan Spark plate reader (Tecan Group Ltd, Männedorf, Switzerland).
Relative inhibition of MAO-A was calculated as a percentage using the following Eq. 2: %Relative inhibition=((Slope of EC−Slope of S)/Slope of EC)×100 (2)
The slopes for all samples, either containing Enzyme Control (EC) or test substance (S), were calculated by dividing the net change in relative fluorescence units (ΔRFU; RFU2–RFU1) by the time interval (Δt; t2 –t1).

CD-1 mice = experiment: Tail suspension test; type: in vivo, mouse; conditions: 100 mg/kg i.p. once daily for 4 days, test 20 h after last dose, 6 min trial; p = 0.028, Mann-Whitney test
Description: Male CD-1 mice (Janvier Labs, Le Genest-St-Isle, France), 3 months of age were used. The animals in the different treatment groups were matched for age. The University of Barcelona’s Committee on Animal Use and Care approved the protocol. Animals were housed and tested in compliance with the guidelines described in the Guide for the Care and Use of Laboratory Animals ([Clark et al., 1997]) and following the European Union directives (2010/63/EU), FELASA and ARRIVE guidelines. All efforts were made to minimize animal suffering and the number of animals used. All animals were housed in groups of five in standard cages with ad libitum access to food and water and maintained under a 12-h dark/light cycle (starting at 7:30 AM), 22°C temperature, and 66% humidity. […] While all treated animals were tested in the tail suspension test, brain tissue from eight of the vehicle-treated and nine of the omeprazole-treated mice was used for subsequent analysis of 5-HT content. Serum samples for 5-HT analysis were drawn from another nine vehicle-treated and eight omeprazole-treated mice.
Immobility time in the tail suspension test is known to be sensitive to manipulations that alter brain 5-HT content ([Garcia-Miralles et al., 2016]; [Palucha-Poniewiera et al., 2017]). […] Each animal was suspended for 6 min and the time spent immobile during suspension was counted using a stopwatch. […]

[1] = biological target: T2, doubly truncated TPH1 (ΔNH102-ΔCOOH402) (Homo sapiens, UniProt P17752); experiment: Mechanism of action and kinetics analysis of TPH1 inhibition (Michaelis-Menten); type: biochemical
T2 construct: The ΔNH102-ΔCOOH402 human TPH1 gene was cloned; six-His (C); made in house
T2 sequence (P17752 102-402, stated change not applied): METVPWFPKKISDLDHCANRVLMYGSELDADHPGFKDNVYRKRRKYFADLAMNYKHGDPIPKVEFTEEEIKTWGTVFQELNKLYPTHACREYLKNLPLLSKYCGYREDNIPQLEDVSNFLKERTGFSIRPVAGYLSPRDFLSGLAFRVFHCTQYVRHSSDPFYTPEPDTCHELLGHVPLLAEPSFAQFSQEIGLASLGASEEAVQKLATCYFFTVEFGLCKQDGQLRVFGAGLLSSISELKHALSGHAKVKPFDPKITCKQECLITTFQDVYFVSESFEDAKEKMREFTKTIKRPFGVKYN
Procedure: 5-OH-Trp formation was measured either at a fixed concentration (200 µM) of the cofactor, BH4, and varying concentrations (0.625–20 µM) of the substrate, L-Trp, or in the presence of varying concentrations of BH4 (2.4–200 µM) and a fixed concentration (20 µM) of L-Trp. Kinetic parameters were estimated by fitting the Michaelis-Menten model to the data using nonlinear regression.
Human doubly truncated TPH1 (ΔNH102-ΔCOOH402) was used for kinetic protein-ligand interaction studies. The enzyme assays were performed as described above. […] When enzyme activity was measured as a function of substrate (L-Trp) concentration (0.625–20 µM), the concentration of the cofactor (BH4) was fixed at 200 µM.

IC50 (MAO-A): 89.4 µM
Vmax ([1]; (A) L-Trp 0.625–20 µM, BH4 200 µM, omeprazole 1 µM): 24.96 (23.18–26.74) µmol/min/mg
Vmax ([1]; (A) L-Trp 0.625–20 µM, BH4 200 µM, omeprazole 10 µM): 21.08 (18.84–23.32) µmol/min/mg
Vmax ([1]; (A) L-Trp 0.625–20 µM, BH4 200 µM, omeprazole 100 µM): 7.03 (6.07–7.98) µmol/min/mg
Vmax ([1]; (B) BH4 2.4–200 µM, L-Trp 20 µM, omeprazole 1 µM): 39.93 (37.18–42.69) µmol/min/mg
Vmax ([1]; (B) BH4 2.4–200 µM, L-Trp 20 µM, omeprazole 10 µM): 31.06 (28.90–33.21) µmol/min/mg
Vmax ([1]; (B) BH4 2.4–200 µM, L-Trp 20 µM, omeprazole 100 µM): 21.11 (18.96–23.26) µmol/min/mg
mode of TPH1 inhibition ([1]; with respect to L-Trp and to BH4): non-competitive inhibitor
SMILES: COc1ccc2[nH]c([S+]([O-])Cc3ncc(C)c(OC)c3C)nc2c1 (stereo not drawn) [Omeprazole]
time spent immobile in tail suspension test vs vehicle (CD-1 mice): significantly less time immobile
